# ChEMBL document CHEMBL1201862, “PubChem BioAssay data set” (2004)
# Activity calls are given as the source filed them.
# Tests used:
# [1] = target: Major prion protein (Homo sapiens, UniProt P04156); format: functional, cell-based
# [2] = cells
# [3] = kidney cell line viability loss – HEK293T, luminescence plate reader, powder samples, set 4, cytotoxicity control, dose response (AID 651863); format: functional, cell-based; settings: HEK293
# [4] = blockers of HIV-1 envelope-mediated cell-cell fusion – cherry-pick, dose response (AID 652057); format: functional, cell-based
# [5] = P. falciparum Dd2 growth inhibitors, dose response, SYBR Green, cherry-picked samples (AID 1159567); format: functional, cell-based
# [6] = CTGF mRNA reduction in DLD1 cells – cell-based, DLD1 colon cancer, RT-qPCR, cherry-pick, dose response (AID 1053122); format: functional; settings: Cancer cell lines
# [7] = HIV-1 AD8 envelope cell-cell fusion blockers – cherry-pick, dose response (AID 652062); format: functional, cell-based;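 further: luciferase signal from cell-cell fusion driven by HIV-1 clade B AD8 Env; potency is for inhibitors of fusion seen as a drop in luminescence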
# [8] = ATP-based viability loss in HEK293T cells – cell-based, CellTiter-Glo luminescence, dry powder, set 2, cytotoxicity control, dose response (AID 720595); format: functional; settings: HEK293
# [9] = ATP-based viability loss in HepG2 cells – cell-based, CellTiter-Glo luminescence, dry powder, set 3, cytotoxicity control, dose response (AID 720594); format: functional
# [10] = ATP-based viability loss in HeLa cells – cell-based, CellTiter-Glo luminescence, dry powder, set 2, cytotoxicity control, dose response (AID 720593); format: functional
# [11] = human cervical cancer cell viability loss – 24 h, plate reader, dry powder, cytotoxicity control, dose response (AID 686928); format: functional, cell-based; settings: HeLa
# [12] = MITF: Counter assay: A375 proliferation Measured in Cell-Based System Using Plate Reader - 2084-03_Inhibitor_Dose_DryPowder_Activity_Set8.; format: functional; settings: A-375
# [13] = inhibitors of TRPM1-promoter reporter in SK-MEL-5 – cell-based, luciferase, dry powder, set 8, MITF inhibitor project, dose response (AID 624430); format: functional
# [14] = MITF Orthogonal Assay: SK-MEL-5 CTG Assay Measured in Cell-Based System Using Plate Reader - 2084-02_Inhibitor_Dose_DryPowder_Activity_Set7.; format: functional
# [15] = Luminescence-based cell-based high throughput dose response assay to identify activators of the DAF-12 from the parasite S. stercoralis (ssDAF-12).; format: functional
# [16] = target: T1, Oxysterols receptor LXR-beta (Homo sapiens, UniProt P55055); test: LXR agonists, Gal4 luciferase reporter, dose response, counter-screen for ssDAF-12 agonist project, cell-based, luminescence, HEK293, S. stercoralis campaign (AID 720737); format: functional; settings: read-out: IC50 (the source's name)
# T1 sequence (P55055 whole entry): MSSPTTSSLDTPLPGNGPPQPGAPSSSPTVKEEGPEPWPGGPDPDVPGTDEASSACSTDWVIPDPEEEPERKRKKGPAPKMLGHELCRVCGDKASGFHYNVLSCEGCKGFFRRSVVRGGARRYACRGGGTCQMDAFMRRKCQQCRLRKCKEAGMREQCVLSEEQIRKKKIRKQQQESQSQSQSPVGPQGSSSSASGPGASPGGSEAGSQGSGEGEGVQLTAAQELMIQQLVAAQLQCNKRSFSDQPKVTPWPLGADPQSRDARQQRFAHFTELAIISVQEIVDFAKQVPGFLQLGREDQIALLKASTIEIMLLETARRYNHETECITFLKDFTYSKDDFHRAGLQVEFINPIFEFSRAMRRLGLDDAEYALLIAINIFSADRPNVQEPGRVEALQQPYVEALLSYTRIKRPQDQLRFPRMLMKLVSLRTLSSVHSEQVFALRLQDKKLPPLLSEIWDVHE
# [17] = target: Paired box protein Pax-8 (Homo sapiens, UniProt Q06710); test: PAX8 transcriptional activity inhibition in RMG-I – RMG-I cells, luciferase, cherry-pick, dose response (AID 687027); format: functional, cell-based;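 further: luciferase reporter driven by Pax8 target thyroperoxidase promoter measured by SteadyGlo luminescence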
# [18] = OVCAR8 cell viability loss – plate reader, dry powder samples, PAX8 project, dose response (AID 743197); format: functional, cell-based; settings: OVCAR-8
# [19] = OVCAR-3 cell viability loss – plate reader, dry powder samples, PAX8 inhibitor project, dose response (AID 743044); format: functional, cell-based
# [20] = toxicity toward immortalized ovarian surface epithelium – cell-based, plate reader, dry powder samples, cytotoxicity control for PAX8 inhibitor project, dose response (AID 743045); format: functional
compound,measurement,setting,value
Cc1onc(-c2c(F)cccc2Cl)c1C(=O)Nc1nnc(C(F)(F)F)s1,IC50,[1],2.79 µM (active)
same,IC50,[2],> 138 µM (inactive)
COC(=O)[C@@H]1CCCC[C@@H]1C(=O)N1CCc2ccccc2[C@H]1CN1C(=O)c2ccccc2C1=O,AC50,[3],> 52 µM (inactive)
N#C[C@@H]1[C@H](c2ccc(-c3cccc(F)c3)cc2)[C@H](CO)N1C(=O)NC1CCCC1,AC50,[4],39.5 µM (active)
same,AC50,[5],2.84 µM (active)
same,AC50,[6],> 26 µM (inactive)
same,AC50,[7],0.768 µM (active)
CCn1nc(-c2cccnc2)nc2c(=O)n(C)c(=O)nc1-2,AC50,[8],16.4 µM (active)
same,AC50,[9],3.24 µM (active)
same,AC50,[10],4.34 µM (active)
CCCCCCCCCC(=O)[C@@H](O)CC.CCCCCCCCCC(=O)[C@H](O)CC,AC50,[11],> 200 µM (inactive)
CC(C)N1CCN(C2=C(Nc3cccc(Br)c3)C(=O)c3ccccc3C2=O)CC1,AC50,[12],48.5 µM (active)
same,AC50,[13],2.52 µM (active)
same,AC50,[14],11.5 µM (active)
COC(=O)[C@]12C=CCN1[C@H](c1ccc(OC)c(OC)c1)c1c(c3ccccc3n1S(=O)(=O)c1ccc(C)cc1)C2,IC50,[15],> 67.5 µM (inactive)
same,EC50,[16],> 67.5 µM (inactive)
CN1c2ccc(-c3ccccc3)cc2[C@H]2[C@H](CCN2C(=O)NC2CCCCC2)[C@@H]1CO,AC50,[17],11.5 µM (active)
same,AC50,[18],25.3 µM (active)
same,AC50,[19],23.4 µM (active)
same,AC50,[20],53.9 µM (active)
